Measurements reported in patent US20240358624A1, “APPLICATION TYPE BODY-CORRECTING-FILM FORMING AGENT” (SHISEIDO COMPANY, LTD., priority 2021, published 2024).
Values belong to the compound of their own block, whether it stands above or below them. Peptide text beside a SMILES is read from it.

Test: Permeability test with stationary Franz diffusion cell and human skin
Format: in vitro ADME
Method: The intramembrane concentrations of various water-soluble agents in the epidermis and dermis after 24 hours were measured using the following conditions and methods with a stationary Franz diffusion cell and human skin.
• Cell type: Stationary Franz diffusion cell (manufactured by Biocom Systems, Inc.) • Receptor well volume: 3.3 mL • Target skin area: 0.55 cm^2 • Membrane type: Human skin having a thickness of 300 μm (acquired from New York Firefighter's Skin Bank, Science Care, Allosource, or BioIVT) • Number of skin donors: 1 individual • Details of donors: Gender: male or female; age: from 30 to 70 years old; site: thigh or upper torso • Receptor fluid: Phosphate buffered saline (PBS) containing 0.01% w/w NaN3 (preservative)
The concentrations of water-soluble agents were measured in the receptor chamber of the diffusion cell at different time points. At the end of the diffusion test, the skin was sequentially tape-stripped and divided into epidermal and dermal layers. Concentrates of various water-soluble agents in each of the grouped tape strips and epidermal and dermal tissues were extracted using an extraction solvent and analyzed on an Agilent G6120 HPLC system equipped with an LC-MS detector.
The obtained skin was cryopreserved in a freezer at −20° C. until the morning of the test. Before use, the skin was removed from the freezer and completely thawed at room temperature. Only visually intact areas of the skin were used during testing.
The receptor fluid was prepared at the appropriate pH and degassed by filtering the receptor fluid through a ZapCap (registered trademark) CR 0.2 μm membrane while vacuuming.
The diffusion cell was assembled according to (1) to (10) below. […]
Once the cell was assembled and the skin was hydrated for 20 minutes, a tritiated water test was performed to assess the barrier integrity of each skin piece before applying the test sample to the skin. Skin barrier integrity was evaluated according to (a) to (i) below. […]

Skin permeability (dosage form of the second agent is an oil-in-water emulsion composition): skin permeability is further improved
Compound: NCC(=O)NCC(=O)O [glycylglycine] (H-Gly-Gly-OH)

Skin permeability (dosage form of the second agent is a water-in-oil emulsion composition): skin permeability is further improved
Compound: NC(=O)c1cccnc1 [nicotinic acid amide, reference compound]

Compound: COc1ccc(C(=O)[O-])c(O)c1.[K+] [potassium 4-methoxysalicylate]
Distribution in the skin when it permeates the skin (from body-correcting-film forming agent, Table 1): tends to remain in the epidermis
